Experimental data: the supplement of paper PMC10307832

Key:
Assay in all cases: relative viability (nuclei count vs DMSO), 5 days (fraction); higher = more cells survive
Lestaurtinib + Foretinib = compound: C[C@]12O[C@H](C[C@]1(O)CO)n1c3ccccc3c3c4c(c5c6ccccc6n2c5c31)CNC4=O [Lestaurtinib] + COc1cc2c(Oc3ccc(NC(=O)C4(C(=O)Nc5ccc(F)cc5)CC4)cc3F)ccnc2cc1OCCCN1CCOCC1 [Foretinib] (partner 0.25 µM)
Method in brief: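 The day after seeding in 1536-well plates, lung cancer cell lines were treated by pin tool with a single drug, or with a fixed anchor-drug dose together with five library-drug doses (not always all listed) in √10 steps. After 5 days, a combined fix-and-stain solution (final 0.05% Triton X-100, 1% formaldehyde, 1 ug/ml Hoechst) was added. Nuclei counted on 4× images gave relative viability as treated counts over vehicle counts, reported as the median of duplicate plates.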

TPCA-1 = compound: C1=CC(=CC=C1C2=CC(=C(S2)NC(=O)N)C(=O)N)F [TPCA-1]
Method in brief: (§1)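 Viability was defined as treated-well nuclei divided by vehicle-well nuclei, with the median taken over replicate plates. Cells from lung cancer lines sat overnight at 37 °C in 1536-well plates, received five √10-spaced library-drug doses by pinning on vehicle-anchored plates, and grew 5 days without medium change before one-step fixation, permeabilisation and Hoechst staining, 4× imaging and MetaXpress nuclear counts. Only plates with control CV under 25% and at least one doubling were kept.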

Lestaurtinib = compound: C[C@]12O[C@H](C[C@]1(O)CO)n1c3ccccc3c3c4c(c5c6ccccc6n2c5c31)CNC4=O [Lestaurtinib]
Method in brief: as §1

[1] = compound: C1/C(=C\C2=CC=CS2)/C(=O)/C(=C/C3=CC=CS3)/C1
Method in brief: as §1

Cell Line	relative viability (Lestaurtinib + Foretinib; first compound 0.005 µM)	relative viability (Lestaurtinib + Foretinib; first compound 0.01581 µM)	relative viability (Lestaurtinib + Foretinib; first compound 0.05 µM)	relative viability (Lestaurtinib + Foretinib; first compound 0.1581 µM)	relative viability (Lestaurtinib + Foretinib; first compound 0.5 µM)	relative viability (TPCA-1; 0.04 µM)	relative viability (TPCA-1; 0.1265 µM)	relative viability (TPCA-1; 0.4 µM)	relative viability (TPCA-1; 1.265 µM)	relative viability (TPCA-1; 4 µM)	relative viability (Lestaurtinib; 0.005 µM)	relative viability (Lestaurtinib; 0.01581 µM)	relative viability (Lestaurtinib; 0.05 µM)	relative viability (Lestaurtinib; 0.1581 µM)	relative viability (Lestaurtinib; 0.5 µM)	relative viability ([1]; 0.2 µM)	relative viability ([1]; 0.6325 µM)	relative viability ([1]; 2 µM)	relative viability ([1]; 6.325 µM)	relative viability ([1]; 20 µM)
Calu-6	0.868	0.979	0.499	0.482	0.207	1.06	0.95	0.982	1	0.72	1.05	0.999	0.621	0.518	0.204	1.06	1.05	0.993	0.944	0.985
NCI-H1703	0.322	0.305	0.27	0.315	0.252	1.24	0.728	0.911	0.647	0.832	0.945	0.749	0.591	0.272	0.151	1.19	1.2	1.01	0.788	0.958
NCI-H1650	1.03	1.24	1.37	1.26	0.694	1.03	0.851	1.06	0.955	0.852	0.976	1.09	0.961	1.19	0.415	0.874	0.908	1.01	0.867	0.875
NCI-H727	1.05	0.991	1.05	0.756	0.33	0.939	0.86	0.961	0.78	0.734	1.07	1.21	1.03	0.787	0.476	1.09	0.887	1.02	0.709	0.954
NCI-H2342	1.17	1.06	1.08	1.08	0.922	1	0.961	1.05	0.956	0.919	0.947	1.04	0.863	1.09	1.03	1.01	0.951	1.06	0.829	0.954
COR-L23	1.03	0.908	0.8	0.825	0.391	1.03	0.924	0.968	0.986	0.857	1.08	1.13	0.633	0.829	0.166	1.03	1.05	1	0.865	0.947
ChaGo-K-1	0.946	1.04	0.828	0.788	0.373	1.09	0.927	0.965	0.925	0.637	1	1.08	0.906	1.01	0.437	0.997	1.02	1.02	0.787	0.535
HOP-62	1.15	1.33	1.08	1.06	0.343	1.02	0.97	0.956	0.943	0.852	1.02	1.11	0.921	1.12	0.452	1.1	1.02	1.01	0.928	1.01
NCI-H1915	1.14	1.21	0.869	0.762	0.287	1.1	0.984	1.05	0.896	0.608	1.01	1.05	0.927	0.642	0.344	1.02	1.04	0.99	0.93	0.97
BEN	0.728	0.803	0.478	0.559	0.224	1.01	0.873	1.05	1.08	0.774	0.993	1.11	0.888	0.8	0.278	0.935	1	1.11	0.848	0.934
NCI-H1437	1.35	1.4	1.29	1.17	1.07	1.01	1.01	1.03	0.971	0.887	1.03	1.15	0.914	0.89	0.835	0.984	0.965	0.949	0.82	0.974
EMC-BAC-2	0.908	0.737	0.78	0.382	0.29	1.01	0.979	1.05	0.819	0.392	0.925	1.04	0.73	0.417	0.357	0.904	1.06	0.978	0.916	1.07
NCI-H647	1.41	1.15	0.705	0.478	0.16	0.972	0.818	1.07	0.867	0.48	0.918	0.988	0.513	0.407	0.172	1.01	1.01	1.02	0.84	0.85
LXF-289	1.02	1.04	0.827	0.905	0.198	1	0.934	0.954	0.953	0.69	0.963	1.02	0.93	0.901	0.315	1.03	1.03	1.02	0.902	0.991
LOU-NH91	0.921	0.842	0.844	0.651	0.459	1.05	0.943	0.981	0.878	0.851	0.946	1	0.865	0.65	0.423	1.02	0.991	1.09	0.874	1.02
NCI-H23	1.02	1.22	0.837	0.635	0.321	1.1	0.846	0.956	0.782	0.231	0.999	1.1	0.817	0.594	0.378	1.13	1.21	1.11	0.798	0.962

Cell Line	relative viability (Lestaurtinib + Foretinib; first compound 0.005 µM)	relative viability (Lestaurtinib + Foretinib; first compound 0.01581 µM)	relative viability (Lestaurtinib + Foretinib; first compound 0.05 µM)	relative viability (Lestaurtinib + Foretinib; first compound 0.1581 µM)	relative viability (Lestaurtinib + Foretinib; first compound 0.5 µM)	relative viability (TPCA-1; 0.04 µM)	relative viability (TPCA-1; 0.1265 µM)	relative viability (TPCA-1; 0.4 µM)	relative viability (TPCA-1; 1.265 µM)	relative viability (TPCA-1; 4 µM)	relative viability (Lestaurtinib; 0.005 µM)	relative viability (Lestaurtinib; 0.01581 µM)	relative viability (Lestaurtinib; 0.05 µM)	relative viability (Lestaurtinib; 0.1581 µM)	relative viability (Lestaurtinib; 0.5 µM)	relative viability ([1]; 0.2 µM)	relative viability ([1]; 0.6325 µM)	relative viability ([1]; 2 µM)	relative viability ([1]; 6.325 µM)	relative viability ([1]; 20 µM)
NCI-H1993	0.791	0.771	0.77	0.63	0.535	0.985	0.805	0.94	1.06	0.722	1.02	0.949	0.824	0.709	0.567	1.04	0.898	1.05	0.786	0.861
HCC-827	1.02	1.02	0.835	0.803	0.202	1.12	0.988	1.05	0.961	0.813	1.01	1.07	1.03	0.892	0.664	1.05	1.04	1.05	0.956	1.04
NCI-H1623	0.872	0.812	0.818	0.671	0.695	1.13	0.879	0.962	1.01	0.763	0.978	0.962	0.931	0.884	0.813	0.977	0.865	1.1	0.903	0.911
NCI-H650	1.04	1.17	0.839	0.689	0.584	1.03	0.823	0.946	0.488	0.557	0.953	1.03	0.844	0.46	0.403	0.973	0.885	0.956	0.984	0.906
CAL-12T	1.25	1.22	1.03	1.13	0.696	0.989	0.925	1.05	0.86	0.468	0.962	1.17	0.968	0.788	0.61	1.04	1.07	0.978	0.859	0.994
NCI-H838	1.12	1.04	0.869	0.519	0.26	1.04	0.863	0.967	0.755	0.739	1	0.986	0.811	0.58	0.193	0.97	0.981	1.04	0.79	0.904
NCI-H2228	0.885	0.896	0.523	0.379	0.254	1.09	0.785	1.16	0.984	0.666	1.25	1.11	0.698	0.483	0.258	1.01	0.989	1.15	0.748	1.1
RERF-LC-KJ	0.914	1.04	0.762	0.749	0.816	1.02	0.895	0.982	0.93	0.826	1.03	1.09	0.847	0.827	0.558	0.984	1.04	1.02	0.878	0.927
NCI-H661	1.02	0.935	1.02	0.933	0.421	0.963	0.858	0.983	0.961	0.7	1.01	0.972	0.964	0.935	0.439	1.05	1.03	0.998	0.903	0.985
HCC-366	0.939	0.924	0.994	1.03	0.536	1.03	0.995	1.01	1.01	0.152	1.06	1.01	1.02	1.01	0.829	1.02	1.05	1.1	0.827	1.04
SK-LU-1	0.763	0.707	0.4	0.38	0.205	1.13	0.9	1.07	0.836	0.632	1.07	0.883	0.531	0.563	0.263	1.12	1.09	1.07	0.91	1.1
A-427	1.03	1.04	0.668	0.4	0.154	1.1	0.94	1.11	0.89	0.312	1.05	1.13	0.792	0.435	0.199	1.03	1.05	1.05	0.954	1.01
SW 1573	0.895	0.889	0.826	0.668	0.518	1.18	0.91	0.985	0.947	0.858	1.05	0.989	0.782	0.571	0.401	1.05	0.996	1.08	0.891	0.99
SW 900	0.719	0.891	1.17	0.868	0.793	0.663	0.719	0.922	0.775	0.654	0.916	1.08	0.966	1.06	0.885	0.9	0.947	0.87	0.874	0.864
NCI-H322M	0.935	1.02	0.523	0.609	0.45	1.11	0.885	1.03	1.13	0.704	0.904	0.924	0.497	0.663	0.624	0.928	0.924	1.01	0.804	0.912
ABC-1	1.04	1.33	0.991	0.962	0.204	1.02	0.798	0.982	0.771	0.638	0.976	1.01	0.79	0.735	0.327	0.87	1.03	1.13	0.842	0.888
